System: dinitrofluorobenzene-induced auricle edema reaction
Assay: Suppressive action on dinitrofluorobenzene-induced auricle edema reaction in mouse
Format: in vivo
Settings: for auricle edema suppression rate (%): BALE/c mice (female), test compound 1% (w/v %) in acetone applied to front and back of auricle (total 20 μL) 1 hr before and 3 hr after induction, auricle thickness 24 hr after induction; for suppressive action on auricle edema response (in words): BALE/c mice, 1% (w/v %) in acetone applied to auricle
Method: BALE/c mice (female, supplied by CHARLES RIVER LABORATORIES JAPAN, INC.) were purchased at the age of 5 weeks. After quarantine and acclimation, mice showing smooth body weight increase and free of abnormality in appearance were used and the test was started at the age of 7 weeks. The mice were housed in a breeding room at room temperature 19-25° C., humidity 30-70%, 12 hr lighting per day (7 a.m.-7 p.m.) with 3 mice in each plastic gauge, and bred on with free ingestion of a commercially available solid feed and water. Two days before the test, the abdomen of the BALE/c mice was shaved, and the mice were immunized by applying 100 μL of a solution {concentration 0.5% [weight (w)/volume (v) %]} of dinitrofluorobenzene (manufactured by Nacalai Tesque) in acetone (manufactured by Wako Pure Chemical Industries, Ltd.) to the shaved part. The reaction was induced by applying dinitrofluorobenzene-acetone solution [concentration 0.2% (w/v %)] to the front and the back of auricle (10 μL to each, total 20 μL) on day 5 after the immunization. A test compound dissolved in acetone at concentration of 1% (w/v %) was administered by applying same to the front and the back of auricle (10 μL to each, total 20 μL) 1 hr before and 3 hr after induction of the reaction. After application, the applied part was air-dried with a dryer. The group applying administered with the test compound was taken as a test compound administration group, and the group applying administered with acetone as a solvent instead of the test compound was taken as a solvent administration group. Also, the group free of immunization and reaction induction but applying administered with acetone instead of the test compound was taken as a normal group. The thickness of auricle was measured using a dial thickness gauge (G-1A manufactured by OZAKI MFG. CO., LTD.) immediately before and 24 hr after induction of the reaction, and the difference thereof was taken as auricle edema. The suppression rate (%) of auricle edema was calculated according to the following formula. [formula]

Compound | auricle edema suppression rate (%) | suppressive action on auricle edema response (in words)
Cc1cc(C#N)ccc1Nc1c(C(=O)N2CCC(c3ccc(F)cc3)CC2)cn(C)c(=O)c1Cl [Compound 100, 4-{3-chloro-5-[4-(4-fluorophenyl)piperidine-1-carbonyl]-1-methyl-2-oxo-1,2-dihydropyridin-4-ylamino}-3-methylbenzonitrile] | 53% | showed a suppressive action on auricle edema response
Cc1c(Nc2ccc(F)cc2F)c(C(=O)N2CCC(c3ccc(F)cc3)CC2)cn(C)c1=O [Compound 125, 4-(2,4-difluorophenylamino)-5-[4-(4-fluorophenyl)piperidine-1-carbonyl]-1,3-dimethylpyridin-2(1H)-one] | 47% | showed a suppressive action on auricle edema response
COCCn1cc(C(=O)N2CCC(c3ccc(F)cc3)CC2)c(Nc2ccc(F)cc2F)c(Cl)c1=O [Compound 144, 3-chloro-4-(2,4-difluorophenylamino)-5-[4-(4-fluorophenyl)piperidine-1-carbonyl]-1-(2-methoxyethyl)pyridin-2(1H)-one] | 32% | 
Cn1cc(C(=O)N2CCC(c3ccc(F)cc3)CC2)c(Nc2ccc(S(C)(=O)=O)cc2F)c(Cl)c1=O [Compound 145, 3-chloro-4-[2-fluoro-4-(methylsulfonyl)phenylamino]-5-[4-(4-fluorophenyl)piperidine-1-carbonyl]-1-methylpyridin-2(1H)-one] |  | showed a suppressive action on auricle edema response
Cc1ccc(Cl)cc1Nc1c(C(=O)N2CCC(c3ccc(F)cc3)CC2)cn(OCCO)c(=O)c1Cl [Compound 204, 3-chloro-4-(5-chloro-2-methylphenylamino)-5-[4-(4-fluorophenyl)piperidine-1-carbonyl]-1-(2-hydroxyethoxyl)pyridin-2(1H)-one] | 41% | showed a suppressive action on auricle edema response
COCCn1cc(C(=O)N2CCC(c3ccc(F)cc3)CC2)c(Nc2ccc3scnc3c2)c(Cl)c1=O [Compound 206, 4-(benzo[d]thiazol-5-ylamino)-3-chloro-5-[4-(4-fluorophenyl)piperidine-1-carbonyl]-1-(2-methoxyethyl)pyridin-2(1H)-one] | 30% | showed a suppressive action on auricle edema response

Reference: US9643952B2, “Pyridone compound” (KYOWA HAKKO KIRIN CO., LTD., priority 2012, dated 2017)
